The nature of data set [1]: Stability of the analytes in rat plasma under different storage conditions (QC samples). It counts as in vitro ADME. The following applies: n = 3; for Remaining (%) / remaining at 4 h / remaining at 360 h: rat plasma; for Remaining (%): freeze–thaw cycles (three); for remaining at 24 h / remaining at 4 h / remaining at 360 h: rat; for remaining at 24 h: extracted plasma QC samples in auto-sampler, 4 °C for 24 h; for remaining at 4 h: 25 °C for 4 h; for remaining at 360 h: at −70 °C for 15 days. On the procedure:
The stability of the seven compounds in rat plasma was assessed by analyzing the QC samples at three concentrations under different sample storage conditions and processing procedures. Short-term stability was assessed by analyzing the QC samples that were kept at room temperature for 4 h, which exceeded the routine sample preparation time. […] Freeze-thaw stability was investigated after three freeze (−40 °C) and thaw (room temperature) cycles. Post-preparation stability was assessed by analyzing the extracted QC samples that were kept in the auto-sampler at 4 °C for […]. All stability testing QC samples were evaluated using the calibration curve of the freshly prepared samples.

Data set [2] is described as follows: Pharmacokinetic study in rats after single oral administration of GJK (UPLC-MS/MS of plasma). It counts as in vivo, Sprague–Dawley rats. The following applies: single oral GJK 24 g/kg; for Tmax / AUC(0-inf) / half-life / Cmax / MRT last / AUC(0-t): Sprague-Dawley; for Tmax: rat, po, 24 g/kg, read-out: Tmax (time to reach peak concentration) (converted); for Tmax / Tmax (time to reach peak concentration): n = 6, median (minimum, maximum); for AUC(0-inf) / half-life / Cmax / MRT last / AUC(0-t) / Tmax (time to reach peak concentration): rat plasma; for AUC(0-inf): n = 6, AUC0–t extrapolated to infinity; for AUC(0-inf) / AUC(0-t): mean ± S.D.; for half-life / Cmax / MRT last: n = 6, mean ± S.D.; for half-life: non-compartmental, read-out: T1/2z (terminal elimination half-life); for Cmax: read-out: Cmax (maximum plasma concentration); for MRT last: read-out: MRT0–t (mean residence time) (converted); for AUC(0-t): n = 6, zero to last sampling time. The procedure: Chromatographic analyses were performed using an Agilent 1290 series UPLC system (Agilent Technologies, Santa Clara, CA, USA) equipped with a binary pump, an online degasser, an auto plate sampler, and a thermostatically controlled column compartment. The determination was carried out at 30 °C on a Waters Acquity UPLC C18 column (100 mm × 2.1 mm, […], Waters, Milford, MA, USA). The mobile phase consisted of 0.1% formic acid (A) and acetonitrile (B) using a gradient elution of 10%–34% B at 0–6 min, 34%–80% B at 6–10 min, 80% B at 10–12 min, 10% B at 12–15 min, and the re-equilibration time of gradient elution was 1 min. The sample injection volume was 5 µL, and the flow rate was 0.35 mL/min. The MS detection was performed using an Agilent 6460 Triple Quadrupole MS (Agilent Technologies) equipped with an electrospray ionization (ESI) source. […] Other parameters were as follows: drying gas (N2) flow rate, 11.0 L/min.
Plasma samples (50 µL) were thawed on ice and mixed with 200 µL of IS (20.0 ng/mL) via vortexing for 1 min. Then, the mixture was centrifuged at 13,500 rpm for 15 min to separate the precipitated protein at 4 °C. The supernatant was transferred into a clean Eppendorf tube and evaporated to dryness under a stream of nitrogen. The residues were reconstituted with 50 µL of water–methanol (50:50, v/v), vortexed and centrifuged at 13,500 rpm for 15 min. Then, the supernatants were injected into the UPLC–MS/MS for analysis.
Sprague–Dawley rats (200–250 g) were obtained from the Center of the Chinese University of Hong Kong and were kept in an environmentally controlled room (temperature: 25 ± 2 °C, humidity: 50% ± 5%, 12 h dark-light cycle) for at least 7 days before the experiments. Prior to the experiments, the animals were fasted for 24 h with water ad libitum. All protocols of animal experiments were approved in accordance with the regulations of the Experimental Animal Administration issued by the Macau University of Science and Technology.
The blood samples (100 µL) were individually collected from the caudal vein into heparinized tubes before administration, and 5, 10, 15, 30, 45, 60, 90, 120, 240, 360, 480, 720 and 1440 min after administration, and then immediately centrifuged at 4500 rpm for 15 min. […] The main PK parameters, including the maximum plasma concentration (Cmax), time to reach Cmax (Tmax), half-life time (T1/2), area under the curve (AUC 0–t and AUC 0–∞) and mean residence time (MRT), were calculated via the non-compartment model using the pharmacokinetic software, PK Solutions 2.0 (Summit Co., Montrose, CO, USA).

The test system of data set [3] is ages-induced mesangial cell damage. Set-up: method as in PMID 23881455. The following applies: in vitro; read-out: IC50 of antioxidative and anti-inflammatory activities; cited from earlier work.
Data set [4] relates to phosphorylation of ERK, JNK, IKK stimulated by TNF-α. Set-up: method as in PMID 23978582. The following applies: cited from earlier work.
The mark [5] stands for this setting: plasma, medium QC concentration.

The structures appear in SMILES notation. Where two headings read alike, the source gives them in different places.

For orientation: AUC(0-inf) means the area under the concentration-time curve extrapolated to infinity. The AUC(0-t) is exposure summed from dosing to a finite time, without extrapolation to infinity. A low value points to low exposure. For the compound `COc1ccc(-c2coc3cc(O[C@@H]4O[C@H](CO)[C@@H](O)[C@H](O)[C@H]4O)ccc3c2=O)cc1O` [Calycosin-7-glucoside, calycosin-7-glucoside], in data set [1] (high QC concentration), the “Remaining (%)” value is listed as 107.4% and the amount remaining at 24 h came out at 103%. Also, in data set [1] (low QC concentration), the “Remaining (%)” value is on record as 108.1% and the amount remaining at 24 h came to 104%. Besides, in data set [1] (medium QC concentration), the “Remaining (%)” value came out at 107.3% and the share remaining at 24 h was determined as 104%. Also, in data set [1] (plasma, high QC concentration), the fraction remaining at 4 h came to 103% and the fraction remaining at 360 h amounted to 102%. Further, in data set [1] (plasma, low QC concentration), the fraction remaining at 4 h amounted to 106% and the amount remaining at 360 h turned out to be 108%. Besides, in data set [1] (setting [5]), the fraction remaining at 4 h was 96% and the amount remaining at 360 h is 94.3%. Besides, the Tmax in data set [2] (plasma) is below 46 min. In data set [2], the AUC(0-inf) is 79.3 ng·h/mL, the half-life turned out to be 266 ± 44 min, the Cmax is 52.2 ± 14.8 ng/mL and the MRT last was 2.17 h. In data set [2], the AUC(0-t) was 77.4 ng·h/mL and the “Tmax (time to reach peak concentration)” value is 45 (45, 60) min.

On to `COc1cc2c(cc1OC)[C@@H]1Cc3ccc(OC)c(OC)c3CN1CC2` [Tetrahydropalmatine, tetrahydropalmatine], for which, in data set [1] (high QC concentration), the “Remaining (%)” value was found to be 108.1%. The “Remaining (%)” value in data set [1] (low QC concentration) is recorded as 89.9%. For the same compound, the “Remaining (%)” value in data set [1] (medium QC concentration) came out at 107.4%. Also, in data set [1] (plasma, high QC concentration), the amount remaining at 24 h is 101%, the fraction remaining at 4 h was 102% and the fraction remaining at 360 h was 103%. Besides, in data set [1] (plasma, low QC concentration), the amount remaining at 24 h stood at 105%, the fraction remaining at 4 h was determined as 103% and the fraction remaining at 360 h was determined as 104%. In data set [1] (setting [5]), the fraction remaining at 24 h was determined as 98.4%, the amount remaining at 4 h stood at 101% and the amount remaining at 360 h came out at 103%. Besides, in data set [2] (in vivo), the AUC(0-inf) was 184 ng·h/mL, the half-life worked out at 310 ± 54 min, the Cmax was 42 ± 13.4 ng/mL and the MRT last is 8.2 h. Moreover, in data set [2] (in vivo), the AUC(0-t) was 170 ng·h/mL and the Tmax is 189 min. Further, in data set [2], the “Tmax (time to reach peak concentration)” value was 180 (180, 180) min.

On to `COc1ccc(-c2coc3cc(O)ccc3c2=O)cc1` [Formononetin, formononetin], for which the AUC(0-t) in data set [2] (in vivo) was 15.2 ng·h/mL. Besides, the Tmax in data set [2] (plasma) is below 46 min. In data set [2], the AUC(0-inf) was 18.7 ng·h/mL, the half-life worked out at 951 ± 97 min, the Cmax was determined as 6.79 ± 2.18 ng/mL and the MRT last was 12.9 h. In data set [2], the “Tmax (time to reach peak concentration)” value is recorded as 45 (30, 45) min.

One may read the IC50 as the point on the concentration scale where inhibition reaches its midpoint. On to `C[C@@]12C[C@@]3(O)O[C@@H](O1)[C@]1(COC(=O)c4ccccc4)[C@H]3C[C@@]12O[C@@H]1O[C@H](CO)[C@@H](O)[C@H](O)[C@H]1O` [Paeoniflorin, paeoniflorin], for which the IC50 in data set [3] was 420 µM. Further, the “Remaining (%)” value in data set [1] (high QC concentration) stood at 105.0%. Moreover, the “Remaining (%)” value in data set [1] (low QC concentration) is 107.8%. For the same compound, in data set [1] (medium QC concentration), the “Remaining (%)” value was found to be 106.4%. Further, in data set [1] (plasma, high QC concentration), the share remaining at 24 h was found to be 103%, the amount remaining at 4 h was found to be 96.4% and the amount remaining at 360 h came to 104%. Further, in data set [1] (plasma, low QC concentration), the amount remaining at 24 h is 98.3%, the share remaining at 4 h was found to be 102% and the share remaining at 360 h turned out to be 98.6%. Moreover, in data set [1] (setting [5]), the share remaining at 24 h was 105%, the fraction remaining at 4 h came to 102% and the fraction remaining at 360 h amounted to 104%. Moreover, in data set [2] (in vivo), the AUC(0-inf) is 1230 ng·h/mL, the half-life was determined as 210 ± 38 min, the Cmax came out at 905 ± 226 ng/mL and the MRT last is 3.32 h. In data set [2] (in vivo), the AUC(0-t) was 1220 ng·h/mL and the Tmax is below 46 min. In addition, the “Concentration that inhibits phosphorylation of ERK, JNK, IKK” value in data set [4] was 25 ng/mL.

Take `COCC12CCC(OC)C34C5CC6(O)C(OC)C(O)C(O)(C5C6OC(=O)c5ccccc5)C(C(OC)C13)C4N(C)C2` (stereo not drawn) [Benzoylhypaconine, benzoylhypaconine]: in data set [1] (high QC concentration), the “Remaining (%)” value stood at 106.9%. The “Remaining (%)” value in data set [1] (low QC concentration) is on record as 109.6%. Also, the “Remaining (%)” value in data set [1] (medium QC concentration) is 92.7%. In data set [1] (plasma, high QC concentration), the fraction remaining at 24 h stood at 104%, the share remaining at 4 h is 105% and the amount remaining at 360 h was determined as 105%. Moreover, in data set [1] (plasma, low QC concentration), the share remaining at 24 h was 107%, the amount remaining at 4 h was determined as 108% and the share remaining at 360 h amounted to 108%. In data set [1] (setting [5]), the amount remaining at 24 h worked out at 104%, the amount remaining at 4 h came out at 108% and the share remaining at 360 h is 104%. Further, in data set [2] (in vivo), the AUC(0-inf) is 76.7 ng·h/mL, the half-life came out at 382 ± 65 min, the Cmax turned out to be 35.6 ± 10.2 ng/mL and the MRT last is 6.25 h. Also, in data set [2] (in vivo), the AUC(0-t) was 72.1 ng·h/mL and the Tmax was below 46 min. Besides, the “Tmax (time to reach peak concentration)” value in data set [2] is reported as 30 (30, 45) min.

These data come from publication PMC6272869, “Simultaneous Determination of Multiple Components in Guanjiekang in Rat Plasma via the UPLC–MS/MS Method and Its Application in Pharmacokinetic Study” (Molecules, 2016).
